{
  "source": "ChEMBL document CHEMBL1131975",
  "about": "“Synthesis and antitumor activity of bithienyl-pyrimidine derivatives with electrostatic binding side chains” (Bioorg Med Chem Lett, 1999)",
  "key": {"Nucleic Acid": {"system": "Nucleic Acid", "test": "Evaluated for binding affinity with DNA at a pH of 8 by Fluorimetric method", "type": "nucleic-acid assay"}, "KB": {"system": "KB", "test": "In vitro cytotoxicity against human oral epidermoid carcinoma (KB) cells", "type": "functional, cell-based"}, "COLO 205": {"system": "COLO 205", "test": "In vitro cytotoxicity against human colon carcinoma (Colon-205) cells", "type": "functional, cell-based"}, "HeLa": {"system": "HeLa", "test": "In vitro cytotoxicity against human cervical carcinoma (Hela) cells at dose 50 ug/mL", "type": "functional, cell-based"}, "HEp-2": {"system": "HEp-2", "test": "In vitro cytotoxicity against human larynx carcinoma (Hep-2)", "type": "functional, cell-based"}},
  "data": [
    {"smiles": "CN(C)CCSc1nccc(-c2ccc(-c3cccs3)s2)n1", "values": [
      {"measurement": "K ass", "setting": "Nucleic Acid", "value": "6.5e+06", "unit": "M⁻¹"},
      {"measurement": "IC50", "setting": "KB", "value": 50, "unit": "mg/L"},
      {"measurement": "IC50", "setting": "COLO 205", "value": 30, "unit": "mg/L"},
      {"measurement": "IC50", "setting": "HeLa", "value": 25, "unit": "mg/L"},
      {"measurement": "IC50", "setting": "HEp-2", "value": 50, "unit": "mg/L"}
    ]},
    {"smiles": "CN(C)CCOc1nccc(-c2ccc(-c3cccs3)s2)n1", "values": [
      {"measurement": "K ass", "setting": "Nucleic Acid", "value": "2.1e+07", "unit": "M⁻¹"},
      {"measurement": "IC50", "setting": "KB", "value": 17, "unit": "mg/L"},
      {"measurement": "IC50", "setting": "COLO 205", "value": 12, "unit": "mg/L"},
      {"measurement": "IC50", "setting": "HeLa", "value": 15, "unit": "mg/L"},
      {"measurement": "IC50", "setting": "HEp-2", "value": 16, "unit": "mg/L"}
    ]},
    {"smiles": "CN(C)CCCOc1nccc(-c2cccs2)n1", "values": [
      {"measurement": "IC50", "setting": "KB", "value": "> 50", "unit": "mg/L"},
      {"measurement": "IC50", "setting": "COLO 205", "value": "> 50", "unit": "mg/L"},
      {"measurement": "IC50", "setting": "HeLa", "value": "> 50", "unit": "mg/L"},
      {"measurement": "IC50", "setting": "HEp-2", "value": "> 50", "unit": "mg/L"}
    ]},
    {"smiles": "CN(C)CCSc1nccc(-c2cccs2)n1", "values": [
      {"measurement": "IC50", "setting": "KB", "value": "> 50", "unit": "mg/L"},
      {"measurement": "IC50", "setting": "COLO 205", "value": "> 50", "unit": "mg/L"},
      {"measurement": "IC50", "setting": "HeLa", "value": "> 50", "unit": "mg/L"},
      {"measurement": "IC50", "setting": "HEp-2", "value": "> 50", "unit": "mg/L"}
    ]},
    {"smiles": "CN(C)CCOc1nccc(-c2cccs2)n1", "values": [
      {"measurement": "IC50", "setting": "KB", "value": "> 50", "unit": "mg/L"},
      {"measurement": "IC50", "setting": "COLO 205", "value": "> 50", "unit": "mg/L"},
      {"measurement": "IC50", "setting": "HeLa", "value": "> 50", "unit": "mg/L"},
      {"measurement": "IC50", "setting": "HEp-2", "value": "> 50", "unit": "mg/L"}
    ]},
    {"smiles": "CN(C)CCCOc1nccc(-c2ccc(-c3cccs3)s2)n1", "values": [
      {"measurement": "K ass", "setting": "Nucleic Acid", "value": "3e+07", "unit": "M⁻¹"},
      {"measurement": "IC50", "setting": "KB", "value": 5, "unit": "mg/L"},
      {"measurement": "IC50", "setting": "COLO 205", "value": 7, "unit": "mg/L"},
      {"measurement": "IC50", "setting": "HeLa", "value": 7, "unit": "mg/L"},
      {"measurement": "IC50", "setting": "HEp-2", "value": 11, "unit": "mg/L"}
    ]}
  ]
}
